In patent publication US6395731B1, “Heterocyclic derivatives which inhibit Factor Xa” (Astrazeneca AB, priority 1998, dated 2002):
Counter-ions that a name gives are not always drawn.

melting point [°C] | Structure (SMILES)
274 to 275 | Nc1nc(-c2ccc(C(=O)N3CCN(S(=O)(=O)c4ccc5cc(Br)ccc5c4)CC3)cc2)c[nH]1 (as salt: salt) [Example 4, 1-(6-Bromonaphth-2-ylsulphonyl)-4-[4-(2-aminoimidazol-4-yl)benzoyl]piperazine]
215 to 216 | Cc1nc(-c2ccc(C(=O)N3CCN(S(=O)(=O)c4ccc5cc(Br)ccc5c4)CC3)cc2)c[nH]1 [Example 3, 1-(6-Bromonaphth-2-ylsulphonyl)-4-[4-(2-methylimidazol-4-yl)benzoyl]piperazine]
